This is an account of results in US5776929A, “Benzodiazepine derivative” (Shionogi & Co., Ltd., priority 1993, dated 1998).

Where two headings read alike, the source gives them in different places.

One assay deals with T1, CCK-A receptor (Mus musculus, UniProt O08786).
T1 construct: crude membrane specimen from mouse pancreas; from tissue; host or cells: pancreas of male ddY mice, crude membranes
T1 sequence (O08786 1-436): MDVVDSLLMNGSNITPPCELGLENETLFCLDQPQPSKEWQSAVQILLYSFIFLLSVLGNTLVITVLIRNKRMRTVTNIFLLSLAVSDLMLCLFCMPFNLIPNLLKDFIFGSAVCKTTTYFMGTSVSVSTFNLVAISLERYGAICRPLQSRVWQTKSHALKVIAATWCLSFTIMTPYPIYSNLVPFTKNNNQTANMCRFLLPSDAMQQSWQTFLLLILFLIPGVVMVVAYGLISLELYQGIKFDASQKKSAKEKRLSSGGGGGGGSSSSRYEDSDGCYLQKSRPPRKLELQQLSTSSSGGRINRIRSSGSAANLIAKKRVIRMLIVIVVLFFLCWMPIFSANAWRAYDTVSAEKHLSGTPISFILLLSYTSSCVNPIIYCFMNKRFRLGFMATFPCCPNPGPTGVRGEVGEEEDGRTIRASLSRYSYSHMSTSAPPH
In words: CCK-A receptor antagonism, displacement of [3H]CCK-8, pancreas crude membrane. The assay is classed as binding, mouse (male ddY). The procedure: (§1) Male Hartley guinea pig (450-600 g) or male ddY mouse (24-30 g) were used.
(§2) (2) CCK-A Receptor Antagonism and CCK-B Receptor Antagonism
(§3) Preparation of CCK receptor preparations
(§4) Male ddY mice (24 to 30 g) were killed by decapitation and cerebral cortex (CCK-B) and pancreas (CCK-A) were extracted immediately. Each of cerebral cortex and pancreas was mixed with 50 mM Tris-HCl buffer (pH 7.4) and homogenized with a teflon-glass homogenizer and polytron homogenizer to obtain crude membrane specimens.
(§5) Preparation of test compounds and procedures of displacing assay A 1M solution of a compound to be tested in DMSO is prepared and diluted with 50% DMSO to obtain a ten-fold dilution series.
(§6) The reaction is initiated by the addition of crude membrane specimen to solutions of different concentration each containing [^3 H]CCk-8 (final concentration, 1 nM). The mixture is incubated for 90 min at 25° C., filtered through glass filter with aspiration and washed with a cooled 50 mM Tris buffer. After the addition of Aquazol-2 cocktail the radioactivity is counted. The same procedure was repeated using 50% DMSO solution or Ceruletide (final concentration, 1 μM) instead of a solution of test compound so as to obtain the control value regarding total binding or the value regarding non-specific binding, respectively. […]
(§7) specific binding of control=total binding (cpm)-non-specific binding (cpm); and specific binding of test compound=[…]-non-specific binding (cpm).

The target in a further assay is T2, gastrin receptor (Cavia porcellus, UniProt H0VZC5).
T2 construct: stomach was extracted from each animal immediately, from which gastric glands were prepared; from tissue; host or cells: gastric (fundic) glands of male Hartley guinea pigs
T2 sequence (H0VZC5 1-426): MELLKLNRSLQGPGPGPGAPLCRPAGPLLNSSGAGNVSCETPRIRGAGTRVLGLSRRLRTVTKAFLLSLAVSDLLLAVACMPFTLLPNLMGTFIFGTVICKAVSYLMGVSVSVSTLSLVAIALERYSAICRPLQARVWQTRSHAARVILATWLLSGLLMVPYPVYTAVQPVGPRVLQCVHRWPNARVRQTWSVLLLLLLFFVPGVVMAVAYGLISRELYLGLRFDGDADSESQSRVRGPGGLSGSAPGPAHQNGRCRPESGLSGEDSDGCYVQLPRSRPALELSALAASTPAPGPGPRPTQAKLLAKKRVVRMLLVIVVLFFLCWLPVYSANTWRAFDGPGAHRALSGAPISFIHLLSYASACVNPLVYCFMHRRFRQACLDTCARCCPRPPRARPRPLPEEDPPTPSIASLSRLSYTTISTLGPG
In words: Gastrin receptor antagonism, displacement of 125I-labeled gastrin, gastric (fundic) gland cells. The assay is classed as binding, guinea pig (male Hartley). The procedure:
as §1
(1) Gastrin Receptor Antagonism
Preparation of gastric glands:
Male Hartley guinea pigs (450-600 g) were killed by bleeding and stomach was extracted from each animal immediately, from which gastric glands were prepared.
Preparation of test compounds and procedures of displacing assay
A 1M solution of a compound to be tested in DMSO is prepared and diluted with 50% DMSO to obtain a ten-fold dilution series.
The mixture is incubated for 30 min at 25° C., centrifuged at 2000 rpm for 5 min and the supernatant is removed by aspiration. To the pellet is added ice-cooled incubation buffer and mixed gently, followed by an immediate centrifugation and removal of the supernatant by aspiration. The radioactivity is counted on gamma counter. The same procedure was repeated using 50% DMSO solution or human gastrin I (final concentration, 2 μM) instead of a solution of test compound so as to obtain the control value regarding total binding or the value regarding non-specific binding, respectively. […]
as §7

For the next assay, the target named is T3, CCK-B receptor (Mus musculus, UniProt P56481).
T3 construct: crude membrane specimen from mouse cerebral cortex; from tissue; host or cells: cerebral cortex of male ddY mice, crude membranes
T3 sequence (P56481 1-453): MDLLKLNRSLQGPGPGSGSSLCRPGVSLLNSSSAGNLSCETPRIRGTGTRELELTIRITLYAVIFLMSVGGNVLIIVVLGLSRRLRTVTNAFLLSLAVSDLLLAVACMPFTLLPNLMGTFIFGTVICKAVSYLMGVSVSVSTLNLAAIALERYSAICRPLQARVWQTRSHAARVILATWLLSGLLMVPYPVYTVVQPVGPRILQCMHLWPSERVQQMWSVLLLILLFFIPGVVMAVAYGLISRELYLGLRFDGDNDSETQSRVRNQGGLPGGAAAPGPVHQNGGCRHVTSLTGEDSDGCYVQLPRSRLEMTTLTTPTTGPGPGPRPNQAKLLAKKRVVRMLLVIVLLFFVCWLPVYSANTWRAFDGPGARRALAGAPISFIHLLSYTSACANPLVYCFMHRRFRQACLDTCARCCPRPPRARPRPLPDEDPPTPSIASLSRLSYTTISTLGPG
In words: CCK-B receptor antagonism, displacement of [3H]CCK-8, cerebral cortex crude membrane. The assay is classed as binding, mouse (male ddY). The procedure:
as §1, §2, §3, §4, §5, §6, §7

Setting [1] is: mouse pancreas membrane, [3H]CCK-8 1 nM, 90 min, 25 °C, read-out: Receptor CCK-A (IC50).
The mark [2] stands for this setting: guinea pig gastric glands, 125I-gastrin 0.2 nM, 30 min, 25 °C, read-out: Receptor Gastrin (IC50).
Setting [3] is: mouse cerebral cortex membrane, [3H]CCK-8 1 nM, 90 min, 25 °C, read-out: Receptor CCK-B (IC50).

Consider `O=C(CN1C(=O)C(NC(=O)Nc2cccc(COC(=O)NCCCC(=O)OCc3ccccc3)c2)C(=O)N(CC(=O)NC2CC2)c2ccccc21)NC1CC1` [Compound 10c, 1,5-Bis-(cyclopropylcarbamoylmethyl)-3-(N'-(3-(3-(benzoyloxycarbonyl)propylcarbamoyloxymethyl)-phenyl)ureido)-1H-1,5-benzodiazepine-2,4 (3H,5H)-dione], for which the figures for the IC50 at CCK-A receptor (setting [1]), at gastrin receptor (setting [2]) and on CCK-B receptor (setting [3]) were 2100 nM, 64 nM and 380 nM, respectively.

Take `COC(=O)CCCNC(=O)OCc1cccc(NC(=O)NC2C(=O)N(CC3CC3)c3ccccc3N(CC3CC3)C2=O)c1` [Compound 9o, 1,5-Bis-(cyclopropylmethyl)-3-(N'-(3-(3-(carbomethoxy)propylcarbamoyloxymethyl)phenyl)ureido)-1H-1,5-benzodiazepine-2,4(3H,5H)-dione]: the IC50 is 3900 nM on CCK-A receptor (setting [1]), 31 nM at gastrin receptor (setting [2]) and 78 nM at CCK-B receptor (setting [3]).

Take `COC(=O)CCCNC(=O)OCc1cccc(NC(=O)NC2C(=O)N(CC(=O)c3cccs3)c3ccccc3N(CC(=O)c3cccs3)C2=O)c1` [Compound 9g]: the IC50 on CCK-A receptor (setting [1]) was found to be 420 nM; on gastrin receptor (setting [2]), 3 nM; at CCK-B receptor (setting [3]), 7 nM.

In the case of `COC(=O)CCCNC(=O)OCc1cccc(NC(=O)NC2C(=O)N(CC(=O)c3ccco3)c3ccccc3N(CC(=O)c3ccco3)C2=O)c1` [Compound 9f, 1,5-Bis-(2-furylcarbonylmethyl)-3-(N'-(3-(3-(carbomethoxy)propylcarbamoyloxymethyl)phenyl)ureido) -1H-1,5-benzodiazepine-2,4(3H,5H)-dione], the IC50 at CCK-A receptor (setting [1]) is 1400 nM; on gastrin receptor (setting [2]) it was 7 nM; on CCK-B receptor (setting [3]), 62 nM.

In the case of `CC(C)(C)OC(=O)CN1C(=O)C(NC(=O)Nc2cccc(COC(=O)NCCCC(=O)OCc3ccccc3)c2)C(=O)N(CC(=O)OC(C)(C)C)c2ccccc21` [Compound 10s, 1,5-Bis-(tert-butoxycarbonylmethyl)-3-(N'-(3-(3-(benzyloxycarbonyl)propylcarbamoyloxymethyl)phenyl)-ureido)-1H-1,5-benzodiazepine-2,4(3H,5H)-dione], the IC50 was below 100 nM on CCK-A receptor (setting [1]), 7 nM at gastrin receptor (setting [2]) and 4 nM on CCK-B receptor (setting [3]).

With `O=C(O)CCCNC(=O)OCc1cccc(NC(=O)NC2C(=O)N(CC(=O)c3ccco3)c3ccccc3N(CC(=O)c3ccco3)C2=O)c1` [Compound 11f, 1,5-Bis-(2-furylcarbonylmethyl)-3-(N'-(3-(3-(carboxy)propylcarbamoyloxymethyl)phenyl)ureido)-1H-1,5-benzodiazepine-2,4(3H,5H)-dione], the IC50 turned out to be 800 nM on CCK-A receptor (setting [1]), 6 nM on gastrin receptor (setting [2]) and 38 nM on CCK-B receptor (setting [3]).

Regarding `O=C(O)CCCNC(=O)OCc1cccc(NC(=O)NC2C(=O)N(CC3CC3)c3ccccc3N(CC3CC3)C2=O)c1` [Compound 11o, 1,5-Bis-(cyclopropylmethyl)-3-(N'-(3-(3-(carboxy)propylcarbamoyloxymethyl)phenyl)ureido)-1H-1,5-benzodiazepine-2,4(3H,5H)-dione], the IC50 is 1850 nM on CCK-A receptor (setting [1]), 18 nM on gastrin receptor (setting [2]) and 36 nM at CCK-B receptor (setting [3]).

As to `COC(=O)CCCNC(=O)OCc1cccc(NC(=O)NC2C(=O)N(CC(=O)N3CCCC3)c3ccccc3N(CC(=O)N3CCCC3)C2=O)c1` [Compound 9a, 1,5-Bis-(pyrrolidinecarbonylmethyl)-3-(N'-(3-(3-(carbomethoxy)propylcarbamoyloxymethyl)phenyl)ureido)-1H-1,5-benzodiazepine-2,4(3H,5H) -dione], the IC50 was determined as 2100 nM on CCK-A receptor (setting [1]), 8 nM on gastrin receptor (setting [2]) and 130 nM on CCK-B receptor (setting [3]).

Regarding `COC(=O)CCCNC(=O)OCc1cccc(NC(=O)NC2C(=O)N(CC(=O)C3CCCC3)c3ccccc3N(CC(=O)C3CCCC3)C2=O)c1` [Compound 9i, 1,5-Bis-(cyclopentylcarbonylmethyl)-3-(N'-(3-(3-(carbomethoxy)propylcarbamoyloxymethyl)phenyl)ureido)-1H-1,5-benzodiazepine-2,4(3H,5H)-dione], the IC50 on CCK-A receptor (setting [1]) stood at 290 nM; at gastrin receptor (setting [2]) it was 7 nM; on CCK-B receptor (setting [3]) it was 2 nM.

As for `COC(=O)CCCNC(=O)OCc1cccc(NC(=O)NC2C(=O)N(CC(=O)c3ccccc3C)c3ccccc3N(CC(=O)c3ccccc3C)C2=O)c1` [Compound 9d, 1,5-Bis-(o-methylphenacyl)-3-(N'-(3-(3-(carbomethoxy)propylcarbamoyloxymethyl)phenyl)ureido)-1H-1,5-benzodiazepine-2,4(3H,5H)-dione], the IC50 at CCK-A receptor (setting [1]) is below 100 nM; at gastrin receptor (setting [2]), 6 nM; at CCK-B receptor (setting [3]), 11 nM.

For the compound `CCOC(=O)c1cccc(NC(=O)NC2C(=O)N(CC(=O)N3CCCC3)c3ccccc3N(CC(=O)N3CCCC3)C2=O)c1` [Compound 18-i, 1,5-Bis-(pyrrolidinocarbonylmethyl)-3-(N'-(m-(carboethoxy)phenyl)ureido)-1H-1,5-benzodiazepine-2,4(3H,5H)-dione], the IC50 on CCK-A receptor (setting [1]) was 3200 nM; on gastrin receptor (setting [2]) it was 25 nM; at CCK-B receptor (setting [3]), 440 nM.

For the compound `COC(=O)CCCNC(=O)OCc1cccc(NC(=O)NC2C(=O)N(CC(=O)N3CCSC3)c3ccccc3N(CC(=O)N3CCSC3)C2=O)c1` [Compound 9b, 1,5-Bis-(thiazolidinecarbonylmethyl)-3-(N'-(3-(3-(carbomethoxy)propylcarbamoyloxymethyl)phenyl)ureido)-1H-1,5-benzodiazepine-2,4(3H,5H)-dione], the IC50 at CCK-A receptor was 360 nM; on gastrin receptor, 14 nM; on CCK-B receptor, 120 nM.

For `COC(=O)CCCNC(=O)OCc1cccc(NC(=O)NC2C(=O)N(CC(=O)C3CC3)c3ccccc3N(CC(=O)C3CC3)C2=O)c1` [Compound 9h, 1,5-Bis-(cyclopropylcarbonylmethyl)-3-(N'-(3-(3-(carbomethoxy)propylcarbamoyloxymethyl)phenyl)ureido)-1H-1,5-benzodiazepine-2,4(3H,5H)-dione], the IC50 on CCK-A receptor (setting [1]) amounted to 1250 nM; at gastrin receptor (setting [2]) it was 4 nM; at CCK-B receptor (setting [3]), 20 nM.

By IC50 is commonly meant the concentration needed to halve the response being measured.
